Paper PMC4336331, “Novel Receptor-Derived Cyclopeptides to Treat Heart Failure Caused by Anti-β1-Adrenoceptor Antibodies in a Human-Analogous Rat Model” (PLoS ONE, 2015)
Peptide text beside a SMILES is read from it.

Legend:
[1] = tested on: CD4+ T-cells; experiment: Recall-assay with splenic CD4+ T-cells; format: cell-based, Lewis/CrlBR rats; settings: 1.0 μg/ml β1EC2-CP; T-cells from spleens of treated and untreated rats; [3H]-thymidine (Fig. 5B-D)
Protocol: (a) Recall-assays with T-cells from spleens of immunised untreated vs. β1EC2-CP-treated animals were conducted as described in [60]. In brief, to purify CD4^+ T-cells from the splenic cell preparations, B-cells and CD8^+ T-cells were depleted by commercially available magnetic beads (MACS, Miltenyi Biotec, Bergisch-Gladbach, Germany) yielding a purity >85%. 1x10^5 of the purified CD4^+ T-cells were then co-incubated in 96-well plates with 1x10^6 irradiated thymic antigen presenting cells (prepared from a younger rat). Reagents added in the different assays were 1.0 μg/ml β1EC2-CP, 1.0 μg/ml tuberculin purified protein derivative (PPD, internal control), 1.0 μg/ml glutathion-S-transferase (GST), as well as 1.0 and 0.1 μg/ml GST/β1EC2-fusion proteins (FP), respectively. Measured T-cell reactivities were normalised to medium. After 48 h of incubation the cells were pulsed with 1.25 μCi/well [^3H]-thymidine and further incubated for 16 h before the cells were harvested; the DNA-incorporated radioactivity was measured using a beta-plate counter.
Fig 5 Immunology of cyclic β1EC2-peptides: fate of β1EC2-specific T- and B-cells. (A) Titer-course of anti-β1EC2-abs in β1EC2-CP-treated rats during the first 6 months of the prevention-study before and 24h after cyclopeptide-injection. […] For better readability error-bars are not shown in the graph. […]

[2] = tested on: functional β1EC2-specific memory B-cells; experiment: Adoptive B-cell transfer and suboptimal immunisation; format: in vivo, Lewis rats; settings: purified B-cells from immunised treated donors into antigen-naïve recipients, then 12.5μg β1EC2/GST-FP in adjuvans (Fig. 5M)
Protocol: (d) To detect functional β 1 EC2-specific memory B-cells in vivo, B-cells were first purified from total splenocytes by negative depletion using mAb V65, R73, 10/78 and WT.5 plus magnetic beads (MACS, Miltenyi Biotec, Bergisch-Gladbach, Germany) yielding average purities of 87%. 2.6x10^7 purified B cells were injected in 250 μl PBS i.v. into antigen-naïve syngeneic male Lewis rats. To selectively trigger the transferred memory B-cells, recipient rats were immunised after five days with only 12.5 μg GST/β1EC2-FP in adjuvans per animal. Serum was collected for antibody detection just before as well as three and seven days after immunisation.
(§1) Fig 5 Immunology of cyclic β1EC2-peptides: fate of β1EC2-specific T- and B-cells. (A) Titer-course of anti-β1EC2-abs in β1EC2-CP-treated rats during the first 6 months of the prevention-study before and 24h after cyclopeptide-injection. Time-points of antigen-boosts are indicated by (red) lines, time-points of CP-injections by (green) arrows. For better readability error-bars are not shown in the graph. (B) Pre-experiments (antigenic recall-assays) performed with CD4^+ T-cells prepared from spleens of GST/β1EC2 fusion-protein (FP)-immunised untreated (n = 3, black) vs. 0.9%NaCl-injected control rats (n = 3, white). […]

[3] = tested on: β1EC2-specific memory B-cells; experiment: Flow cytometric detection of β1EC2-specific memory B-cells; format: in vivo, Lewis/CrlBR rats; settings: Fig. 5K and L
Protocol: (c) For flow cytometric detection of β 1 EC2-specific memory B-cells, splenocytes (1.5x10^8 cells per staining, 2x10^7 cells/ ml in PBS/0.1% BSA/0.02% NaN3) were first labelled with anti-rat IgG(Fc) PE (Jackson Immunoresearch, West Grove, USA) followed by three washings and a blocking step using normal rat serum plus GST (1:500 and 2 μg/ ml, respectively). After another washing step, OX-33 FITC (BD, Heidelberg, Germany, 0.1 μg/ml) and DyLight649-labelled GST/β1EC2-FP (0.2 μg/ml) were added. All incubations were carried out for 15 min on ice and in the dark. Finally, the cells were washed three times and analysed on a FACS-Calibur (BD, Heidelberg, Germany) and FlowJo Software (Tree Star, Ashland, USA) was used to analyse the data.
as §1

For CC(C)[C@@H]1NC(=O)[C@H](Cc2ccccc2)NC(=O)[C@H](CC(=O)O)NC(=O)[C@H](CS)NC(=O)[C@H](CS)NC(=O)[C@H](CCCCN)NC(=O)[C@@H]2CCCN2C(=O)[C@H](CC(=O)O)NC(=O)[C@H](CC(N)=O)NC(=O)[C@H](Cc2ccc(O)cc2)NC(=O)[C@H](CS)NC(=O)[C@H](CCCNC(=N)N)NC(=O)[C@H](CCCNC(=N)N)NC(=O)[C@H](C)NC(=O)[C@H](CCC(=O)O)NC(=O)[C@H](CC(=O)O)NC(=O)[C@H](CO)NC(=O)[C@H](CCC(=O)O)NC(=O)[C@H](C)NC(=O)[C@H](CCCNC(=N)N)NC(=O)[C@H](C)NC(=O)[C@H](CCC(N)=O)NC(=O)CNC(=O)[C@H](CCCNC(=N)N)NC(=O)[C@H](CC(N)=O)NC(=O)[C@H]([C@@H](C)O)NC1=O [β1EC2-CP] (cyclo(AESDEARRCYNDPKCCDFVTNRGQAR)), the “in vitro recall response of purified CD4+ T-cells, in words” value [1] was “clearly responded to the FP but not to β1EC2-CP”, the “anti-β1EC2-abs in serum of recipient rats after B-cell transfer, in words” value [2] was “did not induce detectable amounts” and the “β1EC2-specific memory B-cells by flow cytometry, in words” value [3] was “complete depletion”.
